Assay results published in ChEMBL document CHEMBL5154820 (Eur J Med Chem, 2022).

Key:
HeLa [1] = assay: Induction of cell cycle arrest in human HeLa cells assessed as 2N cells at 3 nM measured after 24 hrs by propidium iodide staining based flow cytometric analysis analysis ( Rvb = 41.7%); format: functional
HeLa [2] = assay: Induction of cell cycle arrest in human HeLa cells assessed as S-phase at 3 nM measured after 24 hrs by propidium iodide staining based flow cytometric analysis analysis ( Rvb = 23.4%); format: functional
HeLa [3] = assay: Induction of cell cycle arrest in human HeLa cells assessed as S-phase at 6 nM measured after 24 hrs by propidium iodide staining based flow cytometric analysis analysis ( Rvb = 23.4%); format: functional
HeLa [4] = assay: Induction of cell cycle arrest in human HeLa cells assessed as >4N cells at 1.5 nM measured after 24 hrs by propidium iodide staining based flow cytometric analysis analysis relative to control; format: functional
HeLa [5] = assay: Induction of cell cycle arrest in human HeLa cells assessed as accumulation of cells at G2/M phase at 6 nM after 24 hrs by propidium iodide staining based flow cytometric analysis (reference value: 17.1%); format: functional
HeLa [6] = assay: Induction of apoptosis in human HeLa cells assessed as early apoptotic cells at 6 nM measured after 24 hrs by Annexin V-FITC/7-AAD staining based flow cytometric analysis (reference value: 18.8%); format: functional
HeLa [7] = assay: Induction of apoptosis in human HeLa cells assessed as necrotic cells at 3 nM measured after 24 hrs by Annexin V-FITC/7-AAD staining based flow cytometric analysis (reference value: 0.45%); format: functional
HeLa [8] = assay: Induction of cell cycle arrest in human HeLa cells assessed as 2N cells at 0.2 uM measured after 24 hrs by propidium iodide staining based flow cytometric analysis analysis ( Rvb = 47.4%); format: functional
HeLa [9] = assay: Induction of cell cycle arrest in human HeLa cells assessed as 2N cells at 0.4 uM measured after 24 hrs by propidium iodide staining based flow cytometric analysis analysis ( Rvb = 47.4%); format: functional
HeLa [10] = assay: Induction of cell cycle arrest in human HeLa cells assessed as >4N cells at 0.4 uM measured after 24 hrs by propidium iodide staining based flow cytometric analysis analysis ( Rvb = 8.84%); format: functional
HeLa [11] = assay: Induction of apoptosis in human HeLa cells assessed as viable cells at 0.4 uM measured after 24 hrs by Annexin V-FITC/7-AAD staining based flow cytometric analysis (reference value: 70.1%); format: functional; conditions: read-out: Activity
HeLa [12] = assay: Induction of apoptosis in human HeLa cells assessed as late apoptotic cells at 0.2 uM measured after 24 hrs by Annexin V-FITC/7-AAD staining based flow cytometric analysis (reference value: 8.51%); format: functional
HeLa [13] = assay: Antimigratory activity against human HeLa cells at 0.4 uM measured after 24 hrs by scratch wound healing based fluorescence inverted microscopic analysis; format: functional
[14] = AUC(0 to t) in C57 nude mouse at 30 mg/kg, ip measured at 0.083 to 24 hrs by LC/MS/MS analysis; format: ADME, organism-based; design: dose 30 mg/kg, time upper 24 hrs, time lower 0.083 hrs, route ip; conditions: in vivo
[15] = Acute toxicity against ICR mouse assessed as regeneration of renal tubule in kidney at 1000 mg/kg, ip measured after 14 days by H and E staining method; format: organism-based; conditions: in vivo, 336 h, time 14 day
[16] = Nephrotoxicity in BABL/c mouse assessed as increased uric acid level at 30 mg/kg, ip administered daily for 21 days followed by addition of 3 mg/kg DDP for every 2 days relative to vehicle; format: toxicity, organism-based; conditions: in vivo, 504 h, time 21 day
[17] = Nephrotoxicity in BABL/c mouse assessed as increased uric acid level at 60 mg/kg, ip administered daily for 21 days relative to vehicle; format: toxicity, organism-based; conditions: in vivo, 504 h, time 21 day
[18] = Toxicity against BABL/c mouse assessed as morphological changes in heart at 30 to 60 mg/kg, ip administered daily for 21 days by H and E staining method; format: organism-based; conditions: in vivo, 504 h, dose 30-60 mg/kg, time 21 day
[19] = Toxicity against BABL/c mouse assessed as morphological changes in kidney at 30 mg/kg, ip administered daily for 21 days followed by addition of 3 mg/kg DDP for every 2 days by H and E staining method; format: organism-based; conditions: in vivo, 504 h, time 21 day
[20] = molecular target: Tubulin beta (Homo sapiens) (UniProt P68371+Q9H4B7+Q13509+P04350+Q3ZCM7+P07437+Q13885+Q9BVA1+Q9BUF5+A6NNZ2); assay: Binding affinity to beta-tubulin colchicine binding site in human HeLa cells assessed as decrease of adduct formation by measuring gray value measured at 50 uM incubated for 2 hrs followed by addition of EBI measured after 1.5 hrs by EBI competition based Western blotting analysis; format: cell-based; conditions: time 3.5 hrs
[21] = Retention time of the compound; format: physicochemical

COc1ccc(/C=C\c2cc(OC)c(OC)c(OC)c2)cc1O [COMBRETASTATIN A4]
Activity (HeLa [1]): 24.9% | Activity (HeLa [2]): 12.1% | Activity (HeLa [3]): 15.9% | Activity (HeLa [4]): 17.9% | Activity (HeLa [5]): 35.3% | Activity (HeLa [6]): 74.2% | Activity (HeLa [7]): 0.64%

CCOc1ccc(-c2cncnc2-c2cc(OC)c(OC)c(OC)c2)cc1Cl
Activity (HeLa [8]): 0.82% | Activity (HeLa [9]): 7.03% | Activity (HeLa [10]): 1.58% | viability at 0.4 µM (HeLa [11]): 11.5% | Activity (HeLa [12]): 6.7% | Activity (HeLa [13]): 50% | AUC(0-t) [14]: 5610 ng·h/mL | Activity [15]: Non-Toxic | Activity [16]: 16% | Activity [17]: 36% | Activity [18]: Non-Toxic | Activity [19]: Non-Toxic | Activity [20]: 1.51 | Retention_time [21]: 2.06 min
